This note sets out measurements from patent US7491505B2, “Method for analyzing tumor aggressivity comprising measurement of polymerized actin” (Bioalliance Pharma, priority 2002, dated 2009).

For this experiment, the system named is polymerized actin in lysate of NIH 3T3 EF cells. Briefly: Measurement of polymerized actin in the steady state (STAFI) and Kobs in cellular lysate by static fluorescence polarization. The class given is biochemical, murine. As to conditions: NIH 3T3 EF lysate. An excerpt: The result of the test is a plateau fluorescence anisotropy value (<<STAFI>>) corresponding to the quantity of polymerized actin in the steady state and an apparent constant (Kobs) for actin polymerization resulting from the progressive incorporation of marked actin monomers over time until attainment of the steady state, that is the plateau of the curve.
By use of the GraphPad Prism® version 3 Software (GraphPad Software, Inc., San Diego, Calif.), for biostatistics, curve fitting, and scientific graphing, the experimental data are used to generate a curve adjusted to a 1st order equation such that: Y=ΔmA max(1−e^−k·t) where
The technique of fluorescence polarization, also called static fluorescence anisotropy enables the obtaining of a value dependent on the size of the fluorescent molecule and the number of fluorescent molecular complexes. […] The level of this plateau, called <<STAFI>> reflects the quantity of F at the steady state, that is, the […], and the speed of reaching the plateau depends on the rapidity with which these filaments are formed. […]
At the time of the test, the solution of marked actin monomers is diluted to 1/3 in G solution. The apparatus used is a Beacon® 2000 Fluorescence Polarization System (Invitrogen Corporation, Carlsbad, Calif.) fluorescence polarization spectrometer. […]

As to `C/C1=C\[C@H](C)C[C@H](C)OC(=O)C[C@H](c2ccc(O)cc2)NC(=O)[C@@H](Cc2c(Br)[nH]c3ccccc23)N(C)C(=O)[C@H](C)NC(=O)[C@@H](C)C1` [Jasplakinolide], the “delta mA max (STAFI, fluorescence anisotropy value at the plateau)” value (10 μM jasplakinolide added to polymerization medium, initial value 35 mA, NIH 3T3 65 mA) worked out at 66 mA. Moreover, the “Kobs (apparent constant of actin polymerization)” value (jasplakinolide added, NIH 3T3 EF alone 0.04, NIH 3T3 0.086) was 0.15.
